Measured values: patent US20060142566A1, “Enantioselective process for the preparation of both enantiomers of 10,11-dihydro-10-hydroxy-5h-dibenz[b,f]azepine-5-carboxamide and new crystal forms thereof” (priority 2002, published 2006)

How the values were obtained:
Assay type in all cases: physicochemical
[1] = hygroscopicity of the crystal modifications
[2] = solubility in organic and aqueous solutions; conditions: compared to modification B
[3] = stability of the crystal forms (bulk stability, thermodynamic stability); conditions: solid form, storage

Row | Structure (SMILES) | hygroscopicity [1] | solubility [2] | stability of crystal form (thermodynamic) [3]
1 | NC(=O)N1c2ccccc2CC(O)c2ccccc21 (single isomer, unassigned) [modification A, (R)- or (S)-10,11-dihydro-10-hydroxy-5H-dibenz[b,f]azepine-5-carboxamide] | Neither modification A nor modification B are hygroscopic | better soluble in organic and aqueous solutions than modification B | –
2 | NC(=O)N1c2ccccc2CC(O)c2ccccc21 (single isomer, unassigned) [modification B, (R)- or (S)-10,11-dihydro-10-hydroxy-5H-dibenz[b,f]azepine-5-carboxamide] | Neither modification A nor modification B are hygroscopic | – | thermodynamically stable crystalline form
